Data as given in ChEMBL document CHEMBL5291721, “A preclinical secondary pharmacology resource illuminates target-adverse drug reaction associations of marketed drugs” (Nat Commun, 2023).

What was measured:
[1] = molecular target: T1, Adenosine receptor A3 (Homo sapiens, UniProt P0DMS8)
T1 sequence (P0DMS8 whole entry): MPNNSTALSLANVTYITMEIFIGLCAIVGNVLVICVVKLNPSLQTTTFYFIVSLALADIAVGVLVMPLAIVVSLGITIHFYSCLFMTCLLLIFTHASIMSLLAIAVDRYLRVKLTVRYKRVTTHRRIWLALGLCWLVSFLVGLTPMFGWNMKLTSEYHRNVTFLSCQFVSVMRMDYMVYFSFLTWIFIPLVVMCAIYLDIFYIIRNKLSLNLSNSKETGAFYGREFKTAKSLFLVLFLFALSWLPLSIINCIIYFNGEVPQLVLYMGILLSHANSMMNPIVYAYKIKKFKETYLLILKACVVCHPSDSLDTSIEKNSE

[2] = molecular target: Prostaglandin G/H synthase 1 (Homo sapiens, UniProt P23219); assay type: functional
Chain of Prostaglandin G/H synthase 1 (Homo sapiens, UniProt P23219) (P23219 whole entry): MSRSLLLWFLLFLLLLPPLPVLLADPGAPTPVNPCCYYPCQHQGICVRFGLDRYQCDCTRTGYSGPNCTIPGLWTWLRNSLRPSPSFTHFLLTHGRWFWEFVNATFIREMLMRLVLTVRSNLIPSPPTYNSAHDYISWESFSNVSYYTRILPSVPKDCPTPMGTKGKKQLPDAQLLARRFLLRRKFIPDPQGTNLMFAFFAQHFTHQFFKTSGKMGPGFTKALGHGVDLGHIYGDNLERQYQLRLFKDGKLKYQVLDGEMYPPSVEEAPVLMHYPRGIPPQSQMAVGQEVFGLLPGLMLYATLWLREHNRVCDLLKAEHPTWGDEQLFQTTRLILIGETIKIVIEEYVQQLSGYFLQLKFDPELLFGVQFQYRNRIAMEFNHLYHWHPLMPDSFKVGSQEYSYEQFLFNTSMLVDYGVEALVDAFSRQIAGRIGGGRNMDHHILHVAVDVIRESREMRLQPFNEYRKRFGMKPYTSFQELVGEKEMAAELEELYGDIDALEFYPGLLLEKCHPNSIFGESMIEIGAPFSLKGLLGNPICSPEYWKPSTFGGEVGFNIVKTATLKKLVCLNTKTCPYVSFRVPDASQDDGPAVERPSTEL

[3] = molecular target: T2, Muscarinic acetylcholine receptor M1 (Homo sapiens, UniProt P11229); assay type: functional, cell-based
T2 sequence (P11229 whole entry): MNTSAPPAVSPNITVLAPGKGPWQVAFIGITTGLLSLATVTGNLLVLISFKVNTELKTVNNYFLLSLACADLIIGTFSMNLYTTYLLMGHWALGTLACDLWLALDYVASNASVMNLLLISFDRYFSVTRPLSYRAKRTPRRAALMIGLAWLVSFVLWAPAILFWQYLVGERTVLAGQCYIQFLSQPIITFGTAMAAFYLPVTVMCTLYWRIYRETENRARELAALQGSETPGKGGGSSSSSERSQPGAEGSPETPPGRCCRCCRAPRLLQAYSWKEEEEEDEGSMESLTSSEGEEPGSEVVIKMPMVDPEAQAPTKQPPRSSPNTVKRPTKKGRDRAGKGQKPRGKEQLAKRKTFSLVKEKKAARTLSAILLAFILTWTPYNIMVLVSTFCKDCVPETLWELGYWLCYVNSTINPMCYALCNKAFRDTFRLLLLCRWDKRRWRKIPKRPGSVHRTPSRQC

[4] = molecular target: Gamma-aminobutyric acid receptor subunit alpha-1 (Rattus norvegicus, UniProt P62813)
Chain of Gamma-aminobutyric acid receptor subunit alpha-1 (P62813 whole entry): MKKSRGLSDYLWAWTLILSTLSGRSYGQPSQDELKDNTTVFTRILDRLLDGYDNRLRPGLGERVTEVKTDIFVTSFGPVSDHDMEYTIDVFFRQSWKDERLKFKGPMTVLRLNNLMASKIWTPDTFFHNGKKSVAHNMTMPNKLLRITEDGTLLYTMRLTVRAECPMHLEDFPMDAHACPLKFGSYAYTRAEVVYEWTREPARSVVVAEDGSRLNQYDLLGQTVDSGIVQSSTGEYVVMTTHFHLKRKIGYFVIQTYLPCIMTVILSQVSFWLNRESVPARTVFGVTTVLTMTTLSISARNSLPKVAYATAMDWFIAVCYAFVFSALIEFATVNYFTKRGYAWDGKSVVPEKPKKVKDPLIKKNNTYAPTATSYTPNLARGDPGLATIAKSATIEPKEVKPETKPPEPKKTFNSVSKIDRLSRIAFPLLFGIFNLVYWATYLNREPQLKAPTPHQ

[5] = molecular target: Beta-1 adrenergic receptor (Homo sapiens, UniProt P08588); assay type: functional
Chain of Beta-1 adrenergic receptor (P08588 whole entry): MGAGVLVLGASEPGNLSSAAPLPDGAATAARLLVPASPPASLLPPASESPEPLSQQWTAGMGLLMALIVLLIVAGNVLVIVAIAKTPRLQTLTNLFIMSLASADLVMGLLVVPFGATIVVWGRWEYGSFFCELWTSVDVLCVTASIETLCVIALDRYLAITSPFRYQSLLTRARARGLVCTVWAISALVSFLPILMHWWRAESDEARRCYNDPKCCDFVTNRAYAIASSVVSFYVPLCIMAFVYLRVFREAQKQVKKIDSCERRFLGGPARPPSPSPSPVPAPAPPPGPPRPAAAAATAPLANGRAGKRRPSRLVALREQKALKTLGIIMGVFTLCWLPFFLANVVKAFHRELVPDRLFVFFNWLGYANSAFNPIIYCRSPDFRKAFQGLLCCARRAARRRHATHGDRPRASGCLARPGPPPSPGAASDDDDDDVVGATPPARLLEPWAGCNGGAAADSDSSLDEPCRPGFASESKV

[6] = molecular target: D(3) dopamine receptor (Homo sapiens, UniProt P35462)
Chain of D(3) dopamine receptor (P35462 whole entry): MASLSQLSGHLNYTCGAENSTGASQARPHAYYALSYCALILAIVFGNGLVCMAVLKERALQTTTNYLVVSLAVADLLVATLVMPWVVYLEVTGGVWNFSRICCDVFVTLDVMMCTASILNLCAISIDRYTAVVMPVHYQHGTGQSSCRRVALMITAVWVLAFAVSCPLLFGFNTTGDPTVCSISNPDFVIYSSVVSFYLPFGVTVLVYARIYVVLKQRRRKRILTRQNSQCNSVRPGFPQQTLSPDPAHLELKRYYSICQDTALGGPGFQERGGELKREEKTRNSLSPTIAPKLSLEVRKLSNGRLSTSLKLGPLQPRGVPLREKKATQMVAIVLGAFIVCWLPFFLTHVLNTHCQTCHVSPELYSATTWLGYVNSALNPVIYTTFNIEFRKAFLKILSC

[7] = molecular target: T3, Alpha-2A adrenergic receptor (Homo sapiens, UniProt P08913); assay type: functional, cell-based
T3 sequence (P08913 whole entry): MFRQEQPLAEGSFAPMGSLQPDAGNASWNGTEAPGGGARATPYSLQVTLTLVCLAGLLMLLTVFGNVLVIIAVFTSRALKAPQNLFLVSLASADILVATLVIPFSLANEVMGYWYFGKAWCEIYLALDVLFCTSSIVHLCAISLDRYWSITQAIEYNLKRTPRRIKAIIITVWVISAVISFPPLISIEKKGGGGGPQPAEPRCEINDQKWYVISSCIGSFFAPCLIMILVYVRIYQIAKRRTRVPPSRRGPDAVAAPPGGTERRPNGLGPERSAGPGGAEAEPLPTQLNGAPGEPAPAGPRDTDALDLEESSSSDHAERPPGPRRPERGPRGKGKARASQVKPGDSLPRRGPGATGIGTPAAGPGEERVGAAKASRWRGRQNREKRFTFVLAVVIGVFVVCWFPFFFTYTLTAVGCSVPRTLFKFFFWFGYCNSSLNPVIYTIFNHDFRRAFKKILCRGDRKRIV

[8] = molecular target: T4, Alpha-1A adrenergic receptor (Homo sapiens, UniProt P35348)
T4 sequence (P35348 whole entry): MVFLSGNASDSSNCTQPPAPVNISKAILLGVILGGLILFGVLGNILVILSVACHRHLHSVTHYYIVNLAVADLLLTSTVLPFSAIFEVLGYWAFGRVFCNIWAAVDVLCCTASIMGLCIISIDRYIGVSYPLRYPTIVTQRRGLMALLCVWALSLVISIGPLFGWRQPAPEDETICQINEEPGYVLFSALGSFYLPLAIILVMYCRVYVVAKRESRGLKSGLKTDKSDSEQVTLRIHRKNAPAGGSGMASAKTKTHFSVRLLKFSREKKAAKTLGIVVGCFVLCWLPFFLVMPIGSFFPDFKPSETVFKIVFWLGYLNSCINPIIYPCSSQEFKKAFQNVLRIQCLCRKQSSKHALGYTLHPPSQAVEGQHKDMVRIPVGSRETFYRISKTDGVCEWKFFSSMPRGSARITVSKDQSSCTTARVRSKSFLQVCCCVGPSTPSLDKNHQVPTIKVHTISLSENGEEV

[9] = molecular target: T4, Alpha-1A adrenergic receptor; assay type: functional, cell-based
[10] = molecular target: T5, Prostaglandin G/H synthase 1 (Rattus norvegicus, UniProt Q63921); assay type: functional
T5 sequence (Q63921 whole entry): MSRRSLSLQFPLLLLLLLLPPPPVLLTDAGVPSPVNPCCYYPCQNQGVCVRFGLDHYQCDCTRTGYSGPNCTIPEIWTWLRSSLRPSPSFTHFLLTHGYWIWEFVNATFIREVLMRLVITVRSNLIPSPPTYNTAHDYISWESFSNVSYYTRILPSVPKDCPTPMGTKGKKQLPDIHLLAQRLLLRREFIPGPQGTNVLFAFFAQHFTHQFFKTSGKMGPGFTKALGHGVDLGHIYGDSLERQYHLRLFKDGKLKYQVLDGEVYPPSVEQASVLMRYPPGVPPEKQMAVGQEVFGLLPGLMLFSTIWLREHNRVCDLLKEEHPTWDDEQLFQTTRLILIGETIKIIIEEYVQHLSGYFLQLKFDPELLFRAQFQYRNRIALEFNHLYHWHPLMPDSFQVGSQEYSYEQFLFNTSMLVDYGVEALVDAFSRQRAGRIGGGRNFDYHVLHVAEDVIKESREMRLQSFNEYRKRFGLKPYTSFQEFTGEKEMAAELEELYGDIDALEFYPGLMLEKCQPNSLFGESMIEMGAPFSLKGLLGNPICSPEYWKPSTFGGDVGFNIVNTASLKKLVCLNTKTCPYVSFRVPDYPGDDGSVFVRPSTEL

[11] = molecular target: T3, Alpha-2A adrenergic receptor; assay type: functional, cell-based; remark: listed apart in the source
[12] = molecular target: 5-hydroxytryptamine receptor 2B (Homo sapiens, UniProt P41595); assay type: functional, cell-based
Chain of 5-hydroxytryptamine receptor 2B (P41595 whole entry): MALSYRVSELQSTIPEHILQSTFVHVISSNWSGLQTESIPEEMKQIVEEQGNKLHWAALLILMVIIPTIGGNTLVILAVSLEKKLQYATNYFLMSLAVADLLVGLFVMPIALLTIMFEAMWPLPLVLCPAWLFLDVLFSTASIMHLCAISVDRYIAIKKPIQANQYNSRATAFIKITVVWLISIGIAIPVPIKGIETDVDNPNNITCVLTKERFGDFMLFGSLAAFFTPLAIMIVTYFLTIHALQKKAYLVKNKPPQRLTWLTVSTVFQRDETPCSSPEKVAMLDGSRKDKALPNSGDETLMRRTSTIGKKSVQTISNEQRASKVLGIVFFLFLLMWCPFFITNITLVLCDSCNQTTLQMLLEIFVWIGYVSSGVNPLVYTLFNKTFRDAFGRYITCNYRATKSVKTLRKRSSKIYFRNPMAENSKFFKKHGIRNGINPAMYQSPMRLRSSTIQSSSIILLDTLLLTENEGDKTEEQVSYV

[13] = molecular target: Beta-2 adrenergic receptor (Homo sapiens, UniProt P07550)
Chain of Beta-2 adrenergic receptor (P07550 whole entry): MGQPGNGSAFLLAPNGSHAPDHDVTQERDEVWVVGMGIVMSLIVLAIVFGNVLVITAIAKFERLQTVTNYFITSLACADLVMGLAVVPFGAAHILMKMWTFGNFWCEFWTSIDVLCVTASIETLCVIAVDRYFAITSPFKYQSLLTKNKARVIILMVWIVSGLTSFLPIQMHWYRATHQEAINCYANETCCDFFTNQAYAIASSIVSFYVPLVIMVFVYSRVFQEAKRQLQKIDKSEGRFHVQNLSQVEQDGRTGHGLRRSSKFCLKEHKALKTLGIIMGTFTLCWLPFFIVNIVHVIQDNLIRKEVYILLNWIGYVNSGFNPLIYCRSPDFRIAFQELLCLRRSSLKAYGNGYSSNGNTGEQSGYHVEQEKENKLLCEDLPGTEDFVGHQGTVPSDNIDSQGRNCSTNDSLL

[14] = molecular target: Adenosine receptor A2a (Homo sapiens, UniProt P29274)
Chain of Adenosine receptor A2a (P29274 whole entry): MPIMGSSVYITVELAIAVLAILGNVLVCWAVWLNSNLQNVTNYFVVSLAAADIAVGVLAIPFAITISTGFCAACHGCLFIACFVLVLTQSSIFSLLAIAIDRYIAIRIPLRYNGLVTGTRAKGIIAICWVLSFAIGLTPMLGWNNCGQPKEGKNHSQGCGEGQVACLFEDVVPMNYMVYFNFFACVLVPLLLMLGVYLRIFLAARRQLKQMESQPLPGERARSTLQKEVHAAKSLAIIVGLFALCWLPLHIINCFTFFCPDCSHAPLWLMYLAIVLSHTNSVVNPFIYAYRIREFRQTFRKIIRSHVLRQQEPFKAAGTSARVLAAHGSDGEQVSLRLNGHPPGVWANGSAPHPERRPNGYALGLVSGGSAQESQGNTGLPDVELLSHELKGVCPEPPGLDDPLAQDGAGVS

[15] = molecular target: Cannabinoid receptor 1 (Homo sapiens, UniProt P21554); assay type: functional, cell-based
Chain of Cannabinoid receptor 1 (P21554 whole entry): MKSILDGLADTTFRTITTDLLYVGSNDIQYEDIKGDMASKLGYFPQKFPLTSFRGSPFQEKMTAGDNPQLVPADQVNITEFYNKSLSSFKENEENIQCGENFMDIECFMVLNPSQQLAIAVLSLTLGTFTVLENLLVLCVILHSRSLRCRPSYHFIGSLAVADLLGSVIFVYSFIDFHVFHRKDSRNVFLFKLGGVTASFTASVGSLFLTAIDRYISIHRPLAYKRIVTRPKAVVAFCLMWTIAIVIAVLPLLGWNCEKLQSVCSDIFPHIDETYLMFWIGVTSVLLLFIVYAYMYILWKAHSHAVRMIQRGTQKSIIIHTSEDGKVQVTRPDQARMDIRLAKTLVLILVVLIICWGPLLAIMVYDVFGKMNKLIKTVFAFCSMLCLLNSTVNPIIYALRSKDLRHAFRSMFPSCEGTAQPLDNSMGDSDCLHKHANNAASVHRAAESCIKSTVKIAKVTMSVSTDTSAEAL
Also: assay procedure not described here.

COc1ccc(OC)c(C(O)C(C)N)c1 (configuration not stated) [METHOXAMINE]
AC50 [1]: > 30 µM
AC50 [2]: > 30 µM
AC50 [3]: > 30 µM

CC1(CCN2CCCCC2)C(=O)CCc2ccccc21 (configuration not stated) [NEPINALONE]
AC50 [1]: > 30 µM
AC50 [2]: > 30 µM
AC50 [3]: > 30 µM

COC(=O)C[C@](O)(CCCC(C)(C)O)C(=O)O[C@@H]1C(OC)=C[C@]23CCCN2CCc2cc4c(cc2[C@H]13)OCO4 [OMACETAXINE MEPESUCCINATE]
AC50 [2]: > 10 µM
AC50 [3]: > 30 µM
AC50 [4]: > 30 µM

COc1cccc(C(=O)CCN[C@@H](C)[C@H](O)c2ccccc2)c1 [OXYFEDRINE]
AC50 [1]: > 30 µM
AC50 [2]: > 30 µM
AC50 [3]: > 30 µM

CC[N+](C)(CC)CCOC(=O)C(O)(c1ccccc1)C1CCCCC1 (configuration not stated) [OXYPHENONIUM]
AC50 [1]: > 30 µM
AC50 [2]: > 30 µM
AC50 [3]: > 30 µM

NNCCc1ccccc1 [PHENELZINE]
AC50 [1]: > 30 µM
AC50 [2]: 0.891 µM
AC50 [4]: > 30 µM

O=C1c2ccccc2C(=O)C1c1ccccc1 [PHENINDIONE]
AC50 [5]: > 10 µM
AC50 [6]: > 30 µM
AC50 [7]: > 10 µM
AC50 [8]: > 10 µM
AC50 [9]: > 30 µM
AC50 [10]: > 10 µM
AC50 [11]: > 10 µM
AC50 [12]: > 10 µM
AC50 [13]: > 10 µM
AC50 [14]: > 10 µM
AC50 [15]: > 30 µM

Clc1ccc(C(Cn2ccnc2)OCc2csc3c(Cl)cccc23)c(Cl)c1 (configuration not stated) [SERTACONAZOLE]
AC50 [1]: 1.63 µM
AC50 [2]: 7.68 µM
AC50 [3]: > 30 µM

CC(OCCN1CCCCCC1)(c1ccccc1)c1ccc(Cl)cc1 (configuration not stated) [SETASTINE]
AC50 [1]: > 30 µM
AC50 [2]: > 30 µM
AC50 [3]: > 30 µM

O=S1(=O)CCN(CN2CCS(=O)(=O)NC2)CN1 [TAUROLIDINE]
AC50 [5]: > 30 µM
AC50 [6]: 27 µM
AC50 [7]: > 30 µM
AC50 [9]: > 30 µM
AC50 [10]: > 30 µM
AC50 [2]: > 30 µM
AC50 [11]: > 30 µM
AC50 [4]: > 30 µM
AC50 [12]: > 30 µM
AC50 [14]: > 30 µM
AC50 [15]: > 30 µM

C[C@]12C=CC(=O)C=C1CC[C@@H]1[C@@H]2CC[C@]2(C)OC(=O)CC[C@@H]12 [TESTOLACTONE]
AC50 [5]: > 10 µM
AC50 [6]: > 30 µM
AC50 [7]: > 30 µM
AC50 [8]: > 10 µM
AC50 [9]: > 30 µM
AC50 [10]: > 10 µM
AC50 [11]: > 30 µM
AC50 [12]: > 30 µM
AC50 [13]: > 10 µM
AC50 [14]: > 10 µM
AC50 [15]: > 30 µM

c1ccc2c(SC3=NCCN3)c[nH]c2c1 [TINAZOLINE]
AC50 [1]: > 30 µM
AC50 [2]: > 30 µM
AC50 [3]: > 30 µM

COc1ccc2c(C(=S)N(C)CC(=O)O)cccc2c1C(F)(F)F [TOLRESTAT]
AC50 [2]: > 30 µM
AC50 [4]: > 30 µM
